The source of these data is patent US12111318B2, “Method for treating cancer based on expression levels of translationally controlled tumor protein (TCTP)” (KOREA UNIVERSITY RESEARCH AND BUSINESS FOUNDATION, priority 2020, dated 2024).

For one series, the system named is CT26 TCTP cells. Kind of series: Cell viability assay (trypan blue exclusion), CT26 TCTP cells. It is filed as cell-based. How it is done:
(§1) CT26 tumor cells were treated with indicated concentrations of cisplatin, dihydroartemisinin, rapamycin, sertraline, and thioridazine for 24 hours. Cell viability was measured by the trypan blue exclusion assay, and the concentrations causing a 50% decrease in cell viability (IC50 values) were determined.

The subject of a further series is CT26 No cells. The experiment in a line: Cell viability assay (trypan blue exclusion), CT26 No cells. The conditions noted are these: Mus musculus, 24 hours, read-out: IC50 (concentration causing a 50% decrease in cell viability). It is filed as cell-based. How it is done: as §1
For a further series, the system named is CT26 TCTP tumor cells. How it is done:
The tumor cells were harvested by trypsinization and washed once with DMEN (Thermo Fisher, USA) containing 0.1% fetal bovine (FBS), resuspended, and labeled in 0.1% DMEN with 10 μM CFSE for 10 minutes in a 37° C. incubator with 5% CO2. Then, the CFSE-labeled (MCF-7, HCT116, CaSki, MDA-MB-231) tumor cells were resuspended in 10 μM MART-1 peptide containing 1 ml of DMEM. In the case of A375 and 526Mel, the peptide-pulsing process was not needed. After peptide-pulsing for 1 hour, the cells were incubated for 4 hours with MART-1- or the NY-ESO1-specific CD8+ T cell lines at an E/T ratio of 1:1. […] All analysis was performed using a Becton Dickinson FACSverse (BD Bioscience, USA).
To further investigate the effect of each drug on sensitizing TCTP^high tumor cells to CTL-mediated killing, CT26 TCTP tumor cells were incubated with CTLs at various tumor cell-T cell ratios after treatment with a sublethal dose of each drug.
To quantify the synergistic effects of treatment of each drug with CTLs, a combination score was calculated based on changes in the percentage of apoptosis in drug-treated tumor cells with or without CTLs (see the following formula 1). […] Formula 1

A further series relates to CT26 P3 tumor. Kind of series: ICB-refractory CT26 P3 tumor-bearing mice, anti-PD-L1 antibody alone or combined with DHA. The conditions noted are these: both the anti-PD-L1 blockade agent and DHA; all mice in the other groups died. It is filed as in vivo, mouse. The procedure: Next, the present inventors expanded the preclinical therapeutic value of DHA in ICB therapy. To do this, ICB-refractory CT26 P3 tumor-bearing mice were administered anti-PD-L1 antibody alone or combined with DHA (FIG. 7G).

Where two headings read alike, the source gives them in different places.

For the compound `N.N.[Cl][Pt][Cl]` [cisplatin], in the series with CT26 TCTP cells (CT26 TCTP vs CT26 No cells, 24 hours), the “Susceptibility of CT26 TCTP cells to the drug” value is reported as “refractory”. `C[C@H]1[C@@H](O)O[C@@H]2O[C@@]3(C)CC[C@H]4[C@H](C)CC[C@@H]1[C@@]24OO3` [DHA, dihydroartemisinin]: the IC50 with CT26 No cells was determined as 408 µM; with CT26 TCTP cells (Mus musculus, CT26 TCTP cells, 24 hours, read-out: IC50 (concentration causing a 50% decrease in cell viability)), 22.7 µM. The “Difference of IC50 between CT26 No and CT26 TCTP cells” value in the series on CT26 TCTP cells (CT26 No vs CT26 TCTP) is listed as “about 20 fold”. For the same compound, the CTL-mediated cytotoxicity entry in the series with CT26 TCTP tumor cells (sublethal dose of each drug, then CTLs at various tumor cell-T cell ratios, compared to PBS or cisplatin) is “augmented CTL-mediated cytotoxicity in a synergistic fashion”. In the series on CT26 P3 tumor, the Mice that survived amounted to 90%.

Take `CN[C@H]1CC[C@@H](c2ccc(Cl)c(Cl)c2)c2ccccc21` [sertraline]: the CTL-mediated cytotoxicity entry in the series on CT26 TCTP tumor cells was “augmented CTL-mediated cytotoxicity in a synergistic fashion”. Still for that read-out and setting: for `CSc1ccc2c(c1)N(CCC1CCCCN1C)c1ccccc1S2` (stereo not drawn) [thioridazine] the value was “augmented CTL-mediated cytotoxicity in a synergistic fashion”; for `CO[C@H]1C[C@@H]2CC[C@@H](C)[C@@](O)(O2)C(=O)C(=O)N2CCCC[C@H]2C(=O)O[C@H]([C@H](C)C[C@@H]2CC[C@@H](O)[C@H](OC)C2)CC(=O)[C@H](C)/C=C(\C)[C@@H](O)[C@@H](OC)C(=O)[C@H](C)C[C@H](C)/C=C/C=C/C=C/1C` [rapamycin], “augmented CTL-mediated cytotoxicity in a synergistic fashion”.
